From patent US20090191543A1, “IDENTIFICATION OF RAC1B AS A MARKER AND MEDIATOR OF METALLOPROTEINASE-INDUCED MALIGNANCY” (THEREGENTS OF THE UNIVERSITY OF CALIFORNIA, priority 2005, published 2009)
One block for each compound: values may come before it.

Assays:
[1] = system: 8-oxodeoxyguanosine; assay: 8-oxoG analysis, FITC-avidin nuclear staining (DNA damage); type: cell-based, mouse; details: for MMP-3-induced increase in FITC-avidin nuclear staining: cells treated with MMP-3 plus inhibitor, FIG. 4b
Procedure: ROS and 8-oxoG analyses. […] FITC-conjugated avidin (Sigma; 1 hr, 37° C.). […] ID NO: 12). […] J Cell Biol 158, 357-68 (2002).

[2] = biological target: T1, MMP-3 (Rattus norvegicus, UniProt P03957); assay: Effect of MMP inhibitor on cells treated with MMP-3 (vimentin-EGFP construct, morphology, FIG. 8b); type: cell-based, mouse
T1 construct: expressed in transfected cells; host or cells: SCp2 cells; conditioned medium used as the MMP-3 source
T1 sequence (P03957 98-475): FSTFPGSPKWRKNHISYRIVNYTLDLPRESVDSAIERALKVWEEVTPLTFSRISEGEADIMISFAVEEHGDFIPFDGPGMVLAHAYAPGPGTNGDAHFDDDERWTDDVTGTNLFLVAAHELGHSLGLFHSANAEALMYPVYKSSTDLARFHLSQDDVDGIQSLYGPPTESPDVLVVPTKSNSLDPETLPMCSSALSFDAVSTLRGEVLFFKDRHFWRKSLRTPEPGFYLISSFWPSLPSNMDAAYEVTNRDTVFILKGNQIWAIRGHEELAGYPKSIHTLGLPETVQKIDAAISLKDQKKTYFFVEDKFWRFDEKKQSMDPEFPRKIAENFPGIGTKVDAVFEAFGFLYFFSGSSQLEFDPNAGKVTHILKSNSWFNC
From the text: The MMP inhibitor GM6001 blocked the MMP-3-mediated effects. […] Scale bar, 50 μm.

[3] = system: SCp2 cells; assay: PALA resistance assay (genomic instability); type: cell-based, mouse
[4] = system: vimentin; assay: Mesenchymal vimentin expression; type: cell-based, mouse; details: for expression of mesenchymal vimentin: MMP-3 4 days or 25 μM H2O2 7 days
Procedure: (§1) Except as otherwise indicated, cells were incubated in the presence of conditioned medium containing MMP-3 for 4 days and with 25 μM H2O2 for 7 days. NAC was used at a concentration of 10 mM. Antibodies against cytokeratin and vimentin were described previously (Lochter, A. et al. J Biol Chem 272, 5007-15, 1997; Lochter, A. et al. J Cell Biol 139, 1861-72, 1997).
(§2) […]; all modified plasmids were sequence-verified.

[5] = system: SCp2 cells; assay: Cell scattering (FIG. 3f); type: cell-based, mouse
Procedure: as §1

[6] = system: Snail; assay: Snail transcript expression; type: cell-based, mouse; details: FIG. 3b; for expression of the transcription factor Snail: MMP-3, or H2O2 in the absence of MMP-3
Procedure: as §1, §2

[7] = system: cytokeratins; assay: Epithelial cytokeratin levels in MMP-3-treated cells; type: cell-based, mouse
From the text: Cell culture, antibodies, and plasmids. Cell culture was as previously described (Lochter, A. et al. Misregulation of stromelysin-1 expression in mouse mammary tumor cells accompanies acquisition of stromelysin-1-dependent invasive properties. J. Biol Chem 272, 5007-15, 1997; Lochter, A. et al. Matrix metalloproteinase stromelysin-1 triggers a cascade of molecular alterations that leads to stable epithelial-to-mesenchymal conversion and a premalignant phenotype in mammary epithelial cells. J Cell Biol 139, 1861-72, 1997); for gene repression, a 5 mg ml^−1 stock solution of tetracycline in 100% ethanol was diluted 1:1000 into culture medium and changed daily. To stimulate cells with MMP-3, we used medium that had been conditioned by SCp2 cells containing the tet-regulated, autoactivated MMP-3-construct (Lochter, A. et al. J Biol Chem 272, 5007-15, 1997; Lochter, A. et al. J Cell Biol 139, 1861-72, 1997) with expression induced by growth in the absence of tetracycline; conditioned medium from cells repressed by treatment with tetracycline was used for controls. This conditioned medium was analyzed by zymography to verify that only MMP-3 was being expressed, and was shown be active through extracellular proteolysis (FIG. 8). […] NAC was used at a concentration of 10 mM. […]

[8] = system: SCp2 cells; assay: MMP-3-induced cell motility, invasion and morphological alterations (not shown); type: cell-based, mouse; details: NAC
[9] = system: SCp2 cells; assay: LC50 of PALA for SCp2 cells; details: read-out: LC50 of PALA for SCp2 cells
[10] = system: RhoA; details: MMP-3-treated cells; not shown
[11] = system: cellular ROS; details: treatment with MMP-3; FIG. 2a
[12] = system: Cdc42; details: MMP-3-treated cells; not shown
[13] = system: SCp2 cells; details: MMP-3 for 14 days, then selected with PALA; FIG. 4f
[14] = system: mammary epithelial cells; assay: Cell motility assessed by scratch assay; type: cell-based, mouse; details: FIG. 1f
From the text: FIG. 1f is a graph showing rate of cell migration and motility as assessed by scratch assay (Goodman, S. L., Vollmers, H. P., and Birchmeier, W. Cell 41, 1029-1038, 1985).

[15] = system: CAD locus; assay: Fluorescence in situ hybridization of CAD gene locus; type: cell-based, mouse; details: exposure to MMP-3; FIG. 4d
[16] = system: Rac1b; details: mammary epithelial cells treated with MMP-3; FIGS. 1b-1d
[17] = system: keratin, E-cadherin, vimentin, SM actin, TGFβ, Snail, collagen A1 and fibronectin; details: cells treated with MMP-3 for 4 days; FIG. 5b
[18] = SCp2 cells, treatment with MMP-3 for 28 days, FIG. 5a

MMP-3-mediated effects ([2]; cells treated with MMP-3): blocked
malignant transformation (flattened morphology of invasive cells) of MMP-3 induced cells ([2]; coincubation with GM6001): prevents
Compound: CNC(=O)[C@H](Cc1c[nH]c2ccccc12)NC(=O)[C@@H](CC(=O)NO)CC(C)C [GM6001]
MMP-3-induced increase in FITC-avidin nuclear staining [1]: blocked

Compound: OO [H2O2, reference compound]
PALA resistance in the absence of MMP-3 ([3]; H2O2 25 μM, FIG. 4e): reproduced
expression of mesenchymal vimentin ([4]; FIG. 3g): can stimulate expression
cell scattering [5]: cell scattering induced
expression of the transcription factor Snail [6]: induced

Compound: CC(=O)N[C@@H](CS)C(=O)O [NAC, N-acetyl cysteine, reference compound]
MMP-3-induced PALA resistance / CAD amplification ([3]; 14 d treatment with MMP-3, NAC 10 mM, FIG. 4e): inhibited
MMP-3-induced upregulation of mesenchymal vimentin ([4]; NAC 10 mM, FIG. 3g): effectively inhibited
MMP-3-induced increase in FITC-avidin nuclear staining [1]: blocked
MMP-3-induced downregulation of epithelial cytokeratins ([7]; NAC 10 mM, FIG. 3a): effectively inhibited
MMP-3-enhanced expression of transcription factor Snail ([6]; NAC 10 mM): blocked
MMP-3-induced cell motility, invasion, and morphological alterations [8]: inhibited

Compound: O=C(O)C[C@H](NC(=O)CP(=O)(O)O)C(=O)O [PALA, N-(phosphonacetyl)-L-aspartate]
CC50 [9]: 25 µM

Compound: MMP-3: autoactivated MMP-3 supplied as medium conditioned by SCp2 cells with tet-regulated construct
PALA-resistant colonies, after 28 days of MMP-3 exposure ([3]; SCp2 cells, 200 μM PALA, after 28 days): 700 colonies/10^5 cells
PALA-resistant colonies, after one week of MMP-3 exposure ([3]; SCp2 cells, 200 μM PALA, one week of MMP-3 exposure): 200 colonies/10^5 cells
activity of RhoA [10]: unchanged
expression of mesenchymal vimentin ([4]; FIG. 3g): can stimulate expression
vimentin staining [4, 18]: increase in vimentin
cellular ROS (DCFDA fluorescence) [11]: produced increases
activity of Cdc42 [12]: unchanged
genomic alterations by CGH analysis [13]: many additional genomic amplifications and deletions
cell migration and motility [14]: causes an increase
CAD locus copy number in PALA-resistant cells [15]: amplification of the CAD locus
FITC-avidin nuclear staining ([1]; cells treated with MMP-3 vs untreated, FIG. 4a): significantly increased
Rac1b transcript and expression levels [16]: upregulates
cytokeratin staining [7, 18]: decrease in cytokeratins
cell scattering [5]: cell scattering induced
expression of the transcription factor Snail [6]: enhances expression
transcript levels of keratin and E-cadherin [17]: greater than two-fold decrease
transcript levels of vimentin, SM actin, TGFβ, Snail, collagen A1 and fibronectin [17]: two-fold or greater increase
